Molecules are shown by their SMILES. pIC50: −log10 of the molar value.

In one experiment the target is D(1A) dopamine receptor (Rattus norvegicus, UniProt P18901). Put plainly: Compound was evaluated for binding affinity to Dopamine receptor D1 labeled with [3H]-SCH- 23390 (0.3 nM) in rat striatal membranes. In kind it is cell membranes, Striatum, Membrane.
Experiment [1] addresses T1, D(2) dopamine receptor (Rattus norvegicus, UniProt P61169). Put plainly: Compound was evaluated for binding affinity to Dopamine receptor D2 labeled with [3H]spiroperidol (0.5 nM) in rat striatal membranes. In kind it is cell membranes, Striatum, Membrane.
Experiment [2] deals with T1, D(2) dopamine receptor. Kind of experiment: Compound was evaluated for binding affinity to Dopamine receptor D2 labeled with [3H]-SND 919 (0.5 nM) in rat striatal membranes. Format: cell membranes, Striatum, Membrane.
Experiment [3] deals with Mus musculus. Kind of experiment: Compound was evaluated for agonistic activity (DA receptor) by inhibition of GBL (gamma-butyralactone)-induced L-Dopa accumulation at a dose 10 mg/kg. Format: functional.
The subject of experiment [4] is Mus musculus. Put plainly: Compound was evaluated for agonistic activity (DA receptor) by inhibition of GBL (gamma-butyralactone)-induced L-Dopa accumulation at a dose of 10 mg/Kg. Format: functional.

T1 sequence (P61169 whole entry): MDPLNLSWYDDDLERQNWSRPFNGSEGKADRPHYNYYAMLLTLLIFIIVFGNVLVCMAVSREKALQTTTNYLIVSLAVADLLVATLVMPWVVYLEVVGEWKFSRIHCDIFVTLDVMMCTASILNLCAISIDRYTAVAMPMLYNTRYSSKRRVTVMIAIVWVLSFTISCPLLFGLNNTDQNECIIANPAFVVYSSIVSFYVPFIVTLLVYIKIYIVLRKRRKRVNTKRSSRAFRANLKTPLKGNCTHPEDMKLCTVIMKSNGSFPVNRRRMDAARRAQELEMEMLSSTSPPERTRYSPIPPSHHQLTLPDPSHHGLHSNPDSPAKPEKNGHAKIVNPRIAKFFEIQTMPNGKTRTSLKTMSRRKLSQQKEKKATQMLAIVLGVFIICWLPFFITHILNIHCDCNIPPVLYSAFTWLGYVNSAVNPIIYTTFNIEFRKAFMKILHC
D(1A) dopamine receptor, sequence (P18901 whole entry): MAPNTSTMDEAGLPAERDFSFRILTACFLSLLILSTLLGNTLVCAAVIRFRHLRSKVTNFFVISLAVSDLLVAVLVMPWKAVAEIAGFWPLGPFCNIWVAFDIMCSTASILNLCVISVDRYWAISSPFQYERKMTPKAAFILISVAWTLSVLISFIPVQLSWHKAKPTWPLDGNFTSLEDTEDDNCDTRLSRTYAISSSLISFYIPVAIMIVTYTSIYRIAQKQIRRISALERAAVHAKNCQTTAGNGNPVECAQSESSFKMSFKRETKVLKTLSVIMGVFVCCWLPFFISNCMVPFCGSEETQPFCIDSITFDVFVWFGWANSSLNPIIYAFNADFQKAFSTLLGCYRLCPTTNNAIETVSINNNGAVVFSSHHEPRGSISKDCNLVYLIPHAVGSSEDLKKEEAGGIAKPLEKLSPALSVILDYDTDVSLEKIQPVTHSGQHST

For `CCCN(CCC)[C@H]1CCn2cccc2C1`, the values for the pIC50 at D(1A) dopamine receptor, at D(2) dopamine receptor [1] and on D(2) dopamine receptor [2] were 4.84, 5.15 and 7.52, respectively. Further, at 10 mg/kg the inhibition in vivo with Mus musculus [3] was 62%.

On to `CCCNC1Cc2cccn3ncc(c23)C1` (centres undefined), for which the pIC50 (as a rule, the negative decadic logarithm of the IC50, by convention in mol/L) at D(1A) dopamine receptor was < 4.00; on D(2) dopamine receptor [1] it was < 4.00; at D(2) dopamine receptor [2], 5.57.

With `CCCN(CCC)C1Cc2cccn3ncc(c23)C1` (centres undefined), the pIC50 was < 4.00 on D(1A) dopamine receptor, 4.30 at D(2) dopamine receptor [1] and 6.59 on D(2) dopamine receptor [2]. Besides, in the experiment with Mus musculus [4], 10 mg/kg produced 57% inhibition in vivo.

For `NC1Cc2cccn3ncc(c23)C1` (centres undefined), the pIC50 is < 4.00 on D(1A) dopamine receptor, < 4.00 on D(2) dopamine receptor [1] and 5.55 at D(2) dopamine receptor [2].

For the origin of these results see ChEMBL document CHEMBL1150548, “Dopamine autoreceptor agonists: computational studies, synthesis and biological investigations” (Bioorg Med Chem Lett, 1993).
